This note sets out measurements from patent US7893299B2, “Interleukin-1 and tumor necrosis factor-αmodulators; syntheses of such modulators and methods of using such modulators” (Nereus Pharmaceuticals, Inc., priority 2005, dated 2011).

“Also recorded” adds a separate entry of the source. Bounds are passed on as bounds.

The test system of experiment [1] is D-GalN/LPS endotoxic shock. Nature of the experiment: lethality induced by D-GalN/LPS in mice. The experiment is classed as in vivo, BALB/c mice. The settings on record: 5 μmol/kg i.p. 1 hour prior to D-GalN/LPS. How it is done:
Male BALB/c mice, 8 to 10 weeks old were induced an endotoxic shock. The lethal injury was produced by an intraperitoneal (i.p.) injection of LPS (2 μg/kg) in combination with D-GalN (800 mg/kg). 5 μmol/kg of TTL3 or formula (IIB-A1) were administered by i.p. injection (0.5 ml) 1 hour prior to the challenge of D-GalN/LPS. Saline was given to the control animals. The lethality was monitored until 24 h after the administration of D-GalN/LPS.

In experiment [2] the test system is HEK-293 cells. Nature of the experiment: cell growth inhibition, HEK-293, Resazurin, 1% FBS. As to conditions: 48 hr of drug exposure. The experiment is classed as cell-based, Human. How it is done: Human prostate adenocarcinoma (PC-3; CRL-1435), multiple myeloma (RPMI 8226; CCL-155) and embryonic kidney (HEK-293; CRL-1573) cells were all purchased from ATCC and maintained in appropriate culture media. The cells were cultured in an incubator at 37° C. in 5% CO2 and 95% humidified air.
For cell growth inhibition assays, PC-3 and HEK-293 cells were seeded at 5×10^3 and 1.5×10^3 cells/well respectively in 90 μl media containing 1% (v/v) FBS into 96 well (Corning; 3904) black-walled, clear-bottom tissue culture plates and the plates were incubated overnight to allow cells to establish and enter log phase growth. RPMI 8226 cells were seeded at 2×10^4 cells/well respectively in 90 μl media containing 1% (v/v) FBS into 96 well plates on the day of the assay. 4 mg/ml stock solutions of the compounds were prepared in 100% DMSO and stored at −20° C. The compounds were serially diluted and added in triplicate to the test wells. LT-1-85 was tested at concentrations ranging from 27 μM to 8.6 nM. Concentrations ranging from 30 μM to 9.7 nM were tested for CC-3-13P. Formula (IIB-A1) was tested at concentrations ranging from 26 μM to 8.4 nM. The plates were returned to the incubator for 48 hours. The final concentration of DMSO was 0.25% in all samples.
Following 48 hours of drug exposure, 10 μl of 0.2 mg/ml Resazurin in Mg2+, Ca2+ free phosphate buffered saline was added to each well and the plates were returned to the incubator for 3-6 hours. Since living cells metabolize Resazurin, the fluorescence of the reduction product of Resazurin was measured using a Fusion microplate fluorometer (Packard Bioscience) with λex=535 nm and λem=590 nm filters. Resazurin dye in medium without cells was used to determine the background, which was subtracted from the data for all experimental wells. […] Where the maximum inhibition of cell growth was less than 50%, an EC50 value was not determined. The data in Table 25 summarize the growth inhibitory effects of LT-1-85, CC-3-13P and formula (IIB-A1) against HEK-293, PC-3 and RPMI 8226 cells. […]
A general note: Alamar Blue is a resazurin reagent that responds to reducing activity.

Experiment [3] has as its system IκBα phosphorylation. The experiment in a line: phosphorylation level of IκBα induced by LPS in RPMI 8226 cells. The class given is cell-based. The settings on record: formula (IIB-A1) 13 μM, TTL3 10 μM, 50 ng/ml LPS. How it is done:
One ml/well of 2×10^6/ml RPMI 8226 cells (#CCL-155C, American Type Culture Collection) were seeded in 6-well plate in LGM-3 medium and cultured for overnight at 37° C., 5% CO2 and 95% humidified air. TTL3 and formula (IIB-A1) were added to RPMI 8226 cells at the final concentration of 10 μM and 13 μM for 1 hr, respectively. DMSO was used as a control. Cells were then stimulated with 50 ng/ml LPS diluted in LGM-3 medium from 1 mg/ml stock solution for 30 min, 1 hr, 2 hr and 4 hr. At the end of each time point, cells were harvested by centrifugation and cell pellets were washed once in ice-cold 1× DPBS. To prepare samples for SDS-PAGE, cells were lysed in RIPA buffer (50 mM Tris-HCl, pH7.4, 0.9% NaCl, 1% Triton X-100, 0.25% Na-deoxycholate, 1 mM EDTA, 2 mM Na3VO4 and 1× protease inhibitors cocktail) for 15 min on ice. Cell lysates were cleared by centrifugation at 14,000 rpm, 4° C. for 10 min. Protein concentrations of cell lysates were determined by BCA protein assay kit prior to SDS-PAGE. Equal amount of proteins from various cell lysates were resolved on 10% NuPage MES precast gels and transferred to nitrocellulose membranes according to the manufacturer's instructions. After transfer membranes were first blocked in BLOTTO (5% Non-fat dry milk in 1× DPBS buffer containing 0.1% Tween-20) at room temperature for 2 hr and then incubated with appropriate primary antibodies: anti-phospho-IκBα (1:1000) or anti-Tubulin (1:2000) for 2 hr. Antibody against tubulin was used as a control to confirm the equal loading of each sample. After the primary antibody incubation, membranes were washed briefly 2-3 times for 10 min each with BLOTTO and again incubated with sheep anti-mouse HRP conjugated secondary antibody for 1 hr. Following the secondary antibody incubation, membranes were washed extensively 4 times for 15 min each with PBST (1× DPBS plus 0.1% Tween-20). HRP activity was visualized by the enhanced chemiluminescence (ECL) detection system.

In the case of `C=C[C@@]1(C)CCC=C2[C@H]1CC[C@@H]1[C@](C)(C(=O)NC3CCCCC3)CCC[C@@]21C` [Formula (IIB-A1), N-Cyclohexylamide Derivative of TTL], the “protection against lethality / survival time” value in experiment [1] is reported as “delay D-GalN/LPS lethality”; in experiment [1] (listed as formula (IIB-A1)), “extending three folds the survival time”. In experiment [2] (Homo sapiens, HEK293, 48 h), this compound gave an EC50 of more than 26 µM. Further, the “level of IκBα phosphorylation induced by LPS in RPMI 8226 cells” value in experiment [3] was “decrease”; in experiment [3] (listed as formula (IIB-A1)) it was “greatly reduced”.

In the case of `C=C[C@@]1(C)CCC=C2[C@H]1CC[C@@H]1[C@](C)(C(=O)N3CCOCC3)CCC[C@@]21C` [LT-1-85], the EC50 is 22 µM in experiment [2] and 23 µM in experiment [2] (Homo sapiens, HEK293, 48 h).

Consider `C=C[C@@]1(C)CCC=C2[C@H]1CC[C@@H]1[C@](C)(C(=O)OC)CCC[C@@]21C` [TTL3], for which the “protection against lethality / survival time” value in experiment [1] is reported as “extending three folds the survival time; also recorded: delay D-GalN/LPS lethality”. The “level of IκBα phosphorylation induced by LPS in RPMI 8226 cells” value in experiment [3] is given as “minimal”.

By EC50 is commonly meant the midpoint of the concentration-response curve. The low end stands for greater potency, the high end for weaker potency.
